Measurements: patent US20240010726A1, “LFA-1 SIGNALLING MEDIATOR FOR USE IN CANCER THERAPY” (Universität Basel, priority 2020, published 2024)

Legend:
[1] = system: human EM CD8 T cells; assay: Flow cytometry of surface activation markers on EM CD8 T cells; assay type: cell-based; settings: 24 h plate-bound anti-CD3 and soluble anti-CD28 Ab; 0 mM vs 1.2 mM Mg^2+
Protocol: FIG. 2: Extracellular magnesium promotes memory-specific activation via LFA-1. Glycolytic switch of human EM CD8 T cells (a) and naïve CD8 T cells (b) subsets upon injection of anti-CD3 Ab only, or anti-CD3 and anti-CD28 Ab, was assessed by metabolic flux analysis in medium containing either 1.2 mM Mg^2+, 0 mM Mg^2+, or medium which was reconstituted from 0 mM to 1.2 mM Mg^2+ immediately prior to activation (0→1.2 mM Mg^2+). (a) Results for human effector memory (EM) and (b) for human naïve CD8 T cells. Glycolytic switch was quantified by subtracting […] measurements. (c) Flow cytometric analysis of surface activation markers on human EM CD8 T cells 24 hours after activation by plate-bound anti-CD3 Ab and soluble anti-CD28 Ab, in 1.2 mM and 0 mM Mg^2+ media, respectively. (d) Abundance of inflammatory cytokines in corresponding EM CD8 T cell culture supernatants, determined by CBA. (e) CD11a (LFA-1) surface expression on human naïve and EM CD8 T cells as well PHA T cell blasts. Flow cytometry-based assessment of total LFA-1 expression assessed by mAb TS2/4 (f), closed conformation of αL by mAb HI111 (g), extended conformation of LFA-1 by mAb Kim127 (h), open head-piece conformation of LFA-1 by mAb m24 (i), phosphorylation of focal adhesion kinase (FAK) […] as well TNF expression (k)±TCR-induced activation in different extracellular Mg^2+ concentrations. (l) Flow cytometry-based assessment of LFA-1 with open-head piece conformation on human EM and naïve CD8 T cells using the open head-piece reporter mAb m24. (m) Assessment of glycolytic switch of EM CD8 T cells. (n) Assessment of glycolytic switch of naïve CD8 T cells. […] Naïve CD8 T cells were activated with in house generated anti-CD3/anti-CD28 coated microbeads. Polybead microspheres ([…], Polyscience […]) were incubated with 1 μg anti-CD3 Ab and 10 μg anti-CD28 Ab. […] Primary human T cells were activated for 24 h and PHA-blasts for 4 h. For analysis of surface markers, T cells were harvested at indicated time points, washed once in cold PBS and, if required, stained with Fixable Viability Dyes for 15 min at 4° C. Surface markers were stained with appropriate antibodies for 20 min at 4° C.

[2] = system: human EM CD8 T cells; assay: Cytometric bead array of cytokines in EM CD8 T cell culture supernatants; assay type: cell-based; settings: Mg^2+-restricted (0 mM) vs 1.2 mM Mg^2+; 24 h
Protocol: FIG. 2: Extracellular magnesium promotes memory-specific activation via LFA-1. Glycolytic switch of human EM CD8 T cells (a) and naïve CD8 T cells (b) subsets upon injection of anti-CD3 Ab only, or anti-CD3 and anti-CD28 Ab, was assessed by metabolic flux analysis in medium containing either 1.2 mM Mg^2+, 0 mM Mg^2+, or medium which was reconstituted from 0 mM to 1.2 mM Mg^2+ immediately prior to activation (0→1.2 mM Mg^2+). (a) Results for human effector memory (EM) and (b) for human naïve CD8 T cells. Glycolytic switch was quantified by subtracting […] measurements. (c) Flow cytometric analysis of surface activation markers on human EM CD8 T cells 24 hours after activation by plate-bound anti-CD3 Ab and soluble anti-CD28 Ab, in 1.2 mM and 0 mM Mg^2+ media, respectively. (d) Abundance of inflammatory cytokines in corresponding EM CD8 T cell culture supernatants, determined by CBA. (e) CD11a (LFA-1) surface expression on human naïve and EM CD8 T cells as well PHA T cell blasts. Flow cytometry-based assessment of total LFA-1 expression assessed by mAb TS2/4 (f), closed conformation of αL by mAb HI111 (g), extended conformation of LFA-1 by mAb Kim127 (h), open head-piece conformation of LFA-1 by mAb m24 (i), phosphorylation of focal adhesion kinase (FAK) […] as well TNF expression (k)±TCR-induced activation in different extracellular Mg^2+ concentrations. (l) Flow cytometry-based assessment of LFA-1 with open-head piece conformation on human EM and naïve CD8 T cells using the open head-piece reporter mAb m24. (m) Assessment of glycolytic switch of EM CD8 T cells. (n) Assessment of glycolytic switch of naïve CD8 T cells. […] Cytokine concentrations in cell culture supernatants were determined using the LegendPlex cytrometric bead Array human […]) according to manufacturer's instructions.

[Mg+2] [Mg^2+, Magnesium]
CD25 surface expression [1]: failed to upregulate
CD69 surface expression [1]: failed to upregulate
CD71 surface expression [1]: failed to upregulate
CD98 surface expression [1]: failed to upregulate
CD107a surface expression (degranulation) [1]: failed to upregulate
IFNγ secretion [2]: decreased production
IL-2 secretion [2]: decreased production
TNF secretion [2]: decreased production
